Source: US20210395327A1, “Growth Hormone-Releasing Hormone Antagonists and Uses Thereof” (United States Government As Represented By The Department …, priority 2019, published 2021)
Where two headings read alike, the source gives them in different places. Non-standard residues stand in square brackets, D forms with d. Residues, ends and D or L forms follow the SMILES beside them. *: point of attachment. Phe(4-Cl) = N[C@@H](Cc1ccc(Cl)cc1)C(=O)O; hArg = N=C(N)NCCCC[C@H](N)C(=O)O; 12Ado = NCCCCCCCCCCCC(=O)O; Nle = CCCC[C@H](N)C(=O)O; Orn = NCCC[C@H](N)C(=O)O; Abu = CC[C@H](N)C(=O)O; PhAc = O=C(Cc1ccccc1)*

Assays:
[1] = system: NCI-N87 stomach cancer cells; assay: In vitro cell viability (CellTiter 96), N87; type: cell-based, human; conditions: antagonist 5 μM for 72 h, cell proliferation assay; MIA602 = 1
Protocol: (§1) The inhibitory effects of the various synthesized GHRH antagonists were tested in cell proliferation assays in various human cancer cell lines including stomach cancer (KATOIII, N87), colon cancer (HT-29), urothelial cancer (J82, RT4), pancreatic cancer (PANC-1, CFPAC-1), prostatic cancer (PC3), breast cancer (MX-1, HCC1806), ovarian cancer (SK-OV-3, OVCAR-3) and lung cancer (HCC827, H460).
(§2) Cell culture. Human cancer cell lines including pancreatic (PANC-1 and CFPAC-1), lung (HCC827 and H460), stomach (NCI-N87 and KATOIII), urothelial (J82, RT4), prostatic (PC3), breast (MX-1 and HCC 1806), colorectal (HT-29), and ovarian (SK-OV-3 and OVCAR-3) were obtained from the American Type Culture Collection (ATCC) and cultured at 37° C. in a humidified 95% air/5% CO2 atmosphere in the medium recommended by ATCC.
(§3) In vitro cell viability. Cell viability was analyzed as follows: cancer cells including pancreatic (PANC-1 and CFPAC-1), lung (HCC827 and H460), stomach (NCI-N87 and KATOIII), urothelial (J82, RT4), prostatic (PC3) and breast (MX-1 and HCC 1806), colorectal (HT-29) and ovarian (SK-OV-3 and OVCAR-3) were grown on 96 well plates to ˜60% confluence, the cells were starved for 24 h in culture medium containing 0.5% FBS. Cells were then treated with GHRH antagonists MIA602 AVR compounds at concentrations of 1, 2.5 or 5 μM, or vehicle (0.1% DMSO) in quintuplicates for 72 hours. The medium was replaced every 48 hours. Cell viability was measured using CellTiter 96 aqueous one solution kit (Promega). Inhibitory effects of tested AVR compounds in comparison to that of MIA602 are presented as inhibitory potency.
(§4) Inhibitory effects of selected AVR compounds in comparison to that of MIA602 are presented as inhibitory potency (e.g., percentage of inhibition). […] The cell lines tested including lung cancer HCC827 (FIG. 2A), pancreatic cancer CFPAC-1 (FIG. 2B), stomach cancer N87 (FIG. 2C), colon cancer HT-29 (FIG. 2D), breast cancers MX-1 and HCC1806 (FIGS. 2 E, F). Based on the results of cell proliferation assay after cancer cells were treated with antagonist at concentration of 5 μM for 72H, the relative inhibitory potency of AVR antagonists in comparison to MIA-602 is summarized in Table 3 A and B. Over 60 AVR compounds were tested in 12 cancer cell lines.
(§5) Based on the results of cell proliferation assay after cancer cells were treated with antagonist at concentration of 5 µM for 72H, * at concentration of 2 µM for 72 H.

[2] = system: KATOIII stomach cancer cells; assay: In vitro cell viability, KATOIII; type: cell-based, human; conditions: antagonist 5 μM for 72 h, cell proliferation assay; MIA602 = 1
In short: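 Cells grown to ~60% confluence, serum-starved 24 h in 0.5% FBS, then treated with antagonists at 1, 2.5 or 5 μM or vehicle (0.1% DMSO) in quintuplicate for 72 h, medium replaced every 48 h. Viability read by MTS-type CellTiter 96 AQueous One assay; expressed as inhibitory potency relative to MIA602.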

HCC827 lung cancer cells = assay: In vitro cell viability, HCC827; type: cell-based, human; conditions: antagonist 5 μM for 72 h, cell proliferation assay; MIA602 = 1
Protocol: as §1, §2, §3, §4, §5

[3] = system: CFPAC-1 pancreatic cancer cells; assay: In vitro cell viability, CFPAC-1; type: cell-based, human; conditions: antagonist 5 μM for 72 h, cell proliferation assay; MIA602 = 1
Protocol: as §1, §2, §3, §4, §5

[4] = system: PANC-1 pancreatic cancer cells; assay: In vitro cell viability, PANC-1; type: cell-based, human; conditions: antagonist 5 μM for 72 h, cell proliferation assay; MIA602 = 1
Protocol: as §1, §2, §3, §4

[5] = system: J82 urothelial cancer cells; assay: In vitro cell viability, J82; type: cell-based, human; conditions: antagonist 5 μM for 72 h, cell proliferation assay; MIA602 = 1
Protocol: as §1, §2, §3, §4

[6] = system: RT4 urothelial cancer cells; assay: In vitro cell viability, RT4; type: cell-based, human; conditions: antagonist 5 μM for 72 h, cell proliferation assay; MIA602 = 1
Protocol: as §1, §2, §3
(§6) Inhibitory effects of selected AVR compounds in comparison to that of MIA602 are presented as inhibitory potency (e.g., percentage of inhibition). […] The cell lines tested including lung cancer HCC827 (FIG. 2A), pancreatic cancer CFPAC-1 (FIG. 2B), stomach cancer N87 (FIG. 2C), colon cancer HT-29 (FIG. 2D), breast cancers MX-1 and HCC1806 (FIGS. 2 E, F). […]

[7] = biological target: T1, membrane GHRH-receptors on human anterior pituitary cells (Homo sapiens, UniProt Q02643); assay: Receptor binding, displacement of 125I-[His1,Nle27]-hGH-RH(1-32)NH2 on human pituitary membranes
T1 construct: Human pituitary was purchased from the National Hormone and Peptide Program; tissue National Hormone and Peptide Program; host or cells: human pituitary (membrane fractions)
T1 sequence (Q02643 23-423): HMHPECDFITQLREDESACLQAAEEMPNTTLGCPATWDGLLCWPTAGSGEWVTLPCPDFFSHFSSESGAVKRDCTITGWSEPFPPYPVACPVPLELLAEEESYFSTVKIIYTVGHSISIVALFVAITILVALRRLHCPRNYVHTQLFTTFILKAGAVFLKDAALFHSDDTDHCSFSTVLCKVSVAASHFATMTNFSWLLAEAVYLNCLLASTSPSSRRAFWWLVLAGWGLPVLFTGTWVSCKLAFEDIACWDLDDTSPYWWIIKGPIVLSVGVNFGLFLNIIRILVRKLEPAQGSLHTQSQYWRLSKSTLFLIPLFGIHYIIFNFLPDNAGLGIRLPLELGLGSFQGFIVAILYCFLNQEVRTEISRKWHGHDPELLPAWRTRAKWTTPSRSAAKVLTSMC
In short: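 Membrane fractions from human pituitary; peptides displace 125I-[His1,Nle27]-hGH-RH(1-32)NH2. IC50 is the dose giving 50% inhibition of specific binding, from duplicate tubes. Relative affinity is the ratio of test IC50 to hGH-RH(1-29)NH2 IC50.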

[8] = system: PC3 prostatic cancer cells; assay: In vitro cell viability, PC3; type: cell-based, human; conditions: antagonist 5 μM for 72 h, cell proliferation assay; MIA602 = 1
Protocol: as §1, §2, §3, §6

[9] = system: HCC1806 breast cancer cells; assay: In vitro cell viability, HCC1806; type: cell-based, human; conditions: antagonist 5 μM for 72 h, cell proliferation assay; MIA602 = 1
Protocol: as §1, §2, §3, §4, §5

MX-1 breast cancer cells = assay: In vitro cell viability, MX-1; type: cell-based, human; conditions: antagonist 5 μM for 72 h, cell proliferation assay; MIA602 = 1
Protocol: as §1, §2, §3, §4, §5

CCCC[C@H](NC(=O)[C@@H](NC(=O)[C@H](CC(=O)O)NC(=O)[C@H](CCC(N)=O)NC(=O)[C@H](CC(C)C)NC(=O)[C@H](CC(C)C)NC(=O)[C@H](CCCN)NC(=O)[C@H](Cc1c[nH]cn1)NC(=O)[C@H](C)NC(=O)[C@H](CO)NC(=O)[C@H](CC(C)C)NC(=O)[C@H](CCC(N)=O)NC(=O)[C@H](CC)NC(=O)[C@H](CC(C)C)NC(=O)[C@@H](NC(=O)[C@H](CCCCN)NC(=O)[C@H](CCCNC(=N)N)NC(=O)[C@H](Cc1ccc(OC)cc1)NC(=O)[C@H](CCCNC(=N)N)NC(=O)[C@H](C)NC(=O)[C@@H](NC(=O)[C@H](Cc1ccc(Cl)cc1)NC(=O)[C@@H](NC(=O)[C@H](C)NC(=O)[C@H](CC(=O)O)NC(=O)[C@@H](CCCNC(=N)N)NC(=O)[C@H](Cc1ccc(O)cc1)NC(=O)CCCCCCCCCCCNC(=O)[C@H](N)Cc1ccccc1)[C@@H](C)CC)[C@@H](C)O)C(C)C)[C@@H](C)CC)C(=O)N[C@H](CCCNC(=N)N)C(=O)N[C@@H](CCCCNC(=N)N)C(N)=O [AVR-120, D-Phe-Ada-Tyr-DArg-Asp-Ala-Ile-Cpa-Thr-Ala-Arg-Tyr(Me)-Arg-Lys-Val-Leu-Abu-Gln-Leu-Ser-Ala-His-Orn-Leu-Leu-Gln-Asp-Ile-Nle-DArg-Har-NH2] (H-[dF][12Ado]Y[dR]DAI[Phe(4-Cl)]TARY(Me)RKVL[Abu]QLSAH[Orn]LLQDI[Nle][dR][hArg]-NH2)
relative inhibitory potency in comparison to MIA-602, Stomach N87 [1]: 2.339 | relative inhibitory potency in comparison to MIA-602, Stomach KATOIII [2]: 1.271 | relative inhibitory potency in comparison to MIA-602, Lung IICC827 (HCC827 lung cancer cells): 1.423 | relative inhibitory potency in comparison to MIA-602, Pancreatic CFPAC-1 [3]: 1.617 | relative inhibitory potency in comparison to MIA-602, Pancreatic Panc-1 [4]: 1.306 | relative inhibitory potency in comparison to MIA-602, Urothelial J82 [5]: 4.841 | relative inhibitory potency in comparison to MIA-602, Urothelial RT4 [6]: 1.611 | IC50 ([7]; membrane receptors on human anterior pituitary cells, mean of two to three determinations, read-out: IC50): 480 pM

CCCC[C@H](NC(=O)[C@@H](NC(=O)[C@H](CC(=O)O)NC(=O)[C@H](CCC(N)=O)NC(=O)[C@H](CC(C)C)NC(=O)[C@H](CC(C)C)NC(=O)[C@H](CCCCN)NC(=O)[C@H](CCCNC(=N)N)NC(=O)[C@H](C)NC(=O)[C@H](CO)NC(=O)[C@H](CC(C)C)NC(=O)[C@H](CCC(N)=O)NC(=O)[C@H](CC)NC(=O)[C@H](CC(C)C)NC(=O)[C@@H](NC(=O)[C@H](CCCCN)NC(=O)[C@H](CCCNC(=N)N)NC(=O)[C@H](Cc1ccc(O)cc1)NC(=O)[C@H](CCCNC(=N)N)NC(=O)[C@H](C)NC(=O)[C@@H](NC(=O)[C@H](Cc1ccc(Cl)cc1)NC(=O)[C@@H](NC(=O)[C@H](C)NC(=O)[C@H](CC(=O)O)NC(=O)[C@@H](CCCNC(=N)N)NC(=O)[C@H](Cc1ccc(O)cc1)NC(=O)CCCCCCCCCCCNC(=O)Cc1ccccc1)[C@@H](C)CC)[C@@H](C)O)C(C)C)[C@@H](C)CC)C(=O)N[C@H](CCCNC(=N)N)C(=O)N[C@@H](CCCCNC(=N)N)C(N)=O [AVR-107, PhAC-Ada-Tyr-DArg-Asp-Ala-Ile-Cpa-Thr-Ala-Arg-Tyr-Arg-Lys-Val-Leu-Abu-Gln-Leu-Ser-Ala-Arg-Lys-Leu-Leu-Gln-Asp-Ile-Nle-DArg-Har-NH2] ({PhAc-12Ado}-Y[dR]DAI[Phe(4-Cl)]TARYRKVL[Abu]QLSARKLLQDI[Nle][dR][hArg]-NH2)
relative inhibitory potency in comparison to MIA-602, Stomach KATOIII [2]: 1.295 | relative inhibitory potency in comparison to MIA-602, Pancreatic CFPAC-1 [3]: 1.080 | relative inhibitory potency in comparison to MIA-602, Pancreatic Panc-1 [4]: 1.160 | relative inhibitory potency in comparison to MIA-602, Prostatic PC3 [8]: 0.800 | relative inhibitory potency in comparison to MIA-602, Breast IICC1806 [9]: 0.950 | relative inhibitory potency in comparison to MIA-602, Breast MX-1 (MX-1 breast cancer cells): 1.010 | IC50 [7]: 610 pM

CCCC[C@H](NC(=O)[C@@H](NC(=O)[C@H](CC(=O)O)NC(=O)[C@H](CCC(N)=O)NC(=O)[C@H](CC(C)C)NC(=O)[C@H](CC(C)C)NC(=O)[C@H](CCCN)NC(=O)[C@H](Cc1c[nH]cn1)NC(=O)[C@H](C)NC(=O)[C@H](CO)NC(=O)[C@H](CC(C)C)NC(=O)[C@H](CCC(N)=O)NC(=O)[C@H](CC)NC(=O)[C@H](CC(C)C)NC(=O)[C@@H](NC(=O)[C@H](CCCCN)NC(=O)[C@H](CCCNC(=N)N)NC(=O)[C@H](Cc1ccc(OC)cc1)NC(=O)[C@H](CCCNC(=N)N)NC(=O)[C@H](C)NC(=O)[C@@H](NC(=O)[C@H](Cc1ccc(Cl)cc1)NC(=O)[C@@H](NC(=O)[C@H](C)NC(=O)[C@H](CC(=O)O)NC(=O)[C@@H](CCCNC(=N)N)NC(=O)[C@H](Cc1ccc(O)cc1)NC(=O)CCCCCCCCCCCNC(=O)Cc1ccccc1)[C@@H](C)CC)[C@@H](C)O)C(C)C)[C@@H](C)CC)C(=O)N[C@H](CCCNC(=N)N)C(=O)N[C@@H](CCCCNC(=N)N)C(N)=O [AVR-104, PhAC-Ada-Tyr-DArg-Asp-Ala-Ile-Cpa-Thr-Ala-Arg-Tyr(Me)-Arg-Lys-Val-Leu-Abu-Gln-Leu-Ser-Ala-His-Orn-Leu-Leu-Gln-Asp-Ile-Nle-DArg-Har-NH2] ({PhAc-12Ado}-Y[dR]DAI[Phe(4-Cl)]TARY(Me)RKVL[Abu]QLSAH[Orn]LLQDI[Nle][dR][hArg]-NH2)
relative inhibitory potency in comparison to MIA-602, Stomach N87 [1]: 2.291 | relative inhibitory potency in comparison to MIA-602, Stomach KATOIII [2]: 1.321 | relative inhibitory potency in comparison to MIA-602, Lung IICC827 (HCC827 lung cancer cells): 1.525 | relative inhibitory potency in comparison to MIA-602, Pancreatic CFPAC-1 [3]: 1.502 | relative inhibitory potency in comparison to MIA-602, Pancreatic Panc-1 [4]: 1.114 | relative inhibitory potency in comparison to MIA-602, Urothelial J82 [5]: 3.377 | relative inhibitory potency in comparison to MIA-602, Urothelial RT4 [6]: 1.697 | relative inhibitory potency in comparison to MIA-602, Prostatic PC3 [8]: 1.440 | relative inhibitory potency in comparison to MIA-602, Breast IICC1806 [9]: 1.220 | relative inhibitory potency in comparison to MIA-602, Breast MX-1 (MX-1 breast cancer cells): 1.310 | IC50 [7]: 590 pM
